Measurements taken from PubChem BioAssay AID1259418 (Broad Institute, 2018).
Values joined by “and” are separate entries in the source; they are usually repeats but may differ in a detail not shown here. Equal values may be shown once. Records with an inconclusive call do not appear. Active and inactive are the calls of the source.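 The calls were made as follows: active = fitted half-maximal concentration of signal decrease at or below twice the sample's top tested concentration; inconclusive = flat curve between -70 and -30 percent, or poor fit; inactive = flat within 30 percent, signal rise, or potency above limit.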

Molecular target: T. gondii ME49Luc in IFN-y HeLa, luciferase, 72 h
Assay: inhibitors of Toxoplasma growth in IFN-γ-primed HeLa – cell-based, ME49Luc, luciferase, 72 h, dose response (AID 1259418)

Row | Structure (SMILES) | AC50
1 | COc1cc(OC)cc(C(=O)Nc2ccc(-c3nc(-c4ccc(C)cc4C)co3)cc2)c1 | 29.7 µM
2 | COc1ccccc1-c1nc(CN2CCc3c(sc4c3CCCC4)C2c2ccccc2)c(C)o1 (configuration not stated) | 7.72 µM
3 | CC(C)CC(=O)N1CCC2(CC1)Nc1cc(F)ccc1-n1cccc12 | > 39 µM (inactive)
4 | CC(C)n1c(C(=O)Nc2cccc(F)c2)nc2c1CCN(Cc1ccccc1)C2 | 9.4 µM
5 | O=C1CCc2cc(S(=O)(=O)N3CCc4ccccc4C3)cc3c2N1CCC3 | 31.1 µM
6 | COc1ccccc1CNC1=NCCNC12CCN(S(=O)(=O)c1ccc(Cl)s1)CC2 | 17 µM
7 | COc1ccc(-c2nc3c(s2)CN(C(=O)Nc2cccc(C)c2)CC3)cc1OC | > 39 µM (inactive)
8 | COc1ccc(CNC(=O)COc2nc(C)nc3ccccc23)cc1 | > 39 µM (inactive)
9 | Fc1cccc(CN2C[C@@H]3N[C@H](C2)C3c2ccc(/C=C/c3ccccc3)cc2)c1 (some centres not stated) | 12.1 µM and 17.5 µM
10 | Cc1ccc(CNC2=NCCNC23CCN(S(=O)(=O)c2ccc(CC(C)C)cc2)CC3)cc1 | 7.71 µM
11 | CC(C)c1ccc(S(=O)(=O)N2CCC3(CC2)NCCN=C3NCc2ccc3c(c2)OCO3)cc1 | 33.6 µM
12 | CCN(CCCNC(=O)CC1Nc2c3ccccc3nc(=S)n2C1=O)c1ccccc1 (configuration not stated) | > 39 µM (inactive)
13 | CCc1nc(OCC(=O)NCc2ccccc2)c2ccccc2n1 | 21.9 µM
14 | CC(C)(C)OC(=O)Nc1cc(-c2cn[nH]c2C2CCCN(C(=O)OC(C)(C)C)C2)ccn1 (configuration not stated) | 10.1 µM
15 | Cc1cccc(CNC2=NCCNC23CCN(S(=O)(=O)c2cc(C)c(C)cc2C)CC3)c1 | 5.49 µM
16 | Cc1ccc(-c2nc(CN3CCN(C(=O)Nc4ccc(C)c(F)c4)CC3)c(C)o2)cc1 | 8.58 µM
17 | O=C(c1ccc(F)cc1)N1CC(=O)N2[C@H](CO)[C@@H](c3ccc(C#CCC4CCCC4)cc3)[C@@H]2C1 | 17.6 µM and 4.58 µM
18 | COc1ccc(OC)c(S(=O)(=O)N2CCc3c([nH]c4ccccc34)C2c2cc(F)ccc2F)c1 (configuration not stated) | > 39 µM (inactive)
19 | COc1ccc(S(=O)(=O)N(Cc2nc(-c3cccc(C)c3)oc2C)c2ccccc2OC)cc1 | 6 µM
20 | Cc1ccc(S(=O)(=O)N2CCC3(CC2)NCCN=C3NCc2cc(F)cc(F)c2)cc1C | 30.1 µM
21 | O=C(NCCc1csc(-c2ccccc2)n1)C1CCN(C(=O)Cc2cccc(F)c2)CC1 | 2.76 µM
22 | COc1ccccc1C(=O)Nc1ccc(-c2nc(-c3ccccc3)co2)cc1 | 33.3 µM
23 | Cc1nc(OCC(=O)Nc2ccc(Cl)cc2)c2ccccc2n1 | > 39 µM (inactive)
24 | O=C(c1cnccn1)N1CC(=O)N2[C@H](CO)[C@H](c3ccc(-c4cccc(F)c4)cc3)[C@H]2C1 | 13.9 µM and 25 µM

Row | Structure (SMILES) | AC50
25 | CCc1nc(OCC(=O)Nc2ccccc2)c2ccccc2n1 | 27.7 µM
26 | COc1ccc(-c2ccc3nc(CO)[nH]c3c2)cc1Cl | 16.2 µM
27 | Fc1ccc(CSc2nc(NCc3ccccc3)c3ccccc3n2)cc1 | 17.8 µM
28 | Cc1cccc(-c2ccc([C@H]3[C@@H](CO)N4CCCCN(S(=O)(=O)c5ccccc5F)C[C@H]34)cc2)c1 | 16.9 µM and 13.6 µM
29 | COc1ccc(-c2nc(NC(C)C)c3ccccc3n2)cc1 | > 39 µM (inactive)
30 | Cc1cccc(-c2ccc([C@@H]3[C@@H](CO)N4C(=O)CN(C(=O)c5ccc6c(c5)OCO6)C[C@H]34)cc2)c1 | 18.8 µM
31 | COc1cccc(-c2ccc(C3[C@@H]4CN(S(=O)(=O)Cc5ccccc5)C[C@H]3N4)cc2)c1 (some centres not stated) | 12.3 µM and 15.7 µM
32 | CS(=O)(=O)N1CSC[C@@H]1C(=O)NCCc1csc(-c2ccccc2)n1 | 30.8 µM
33 | Cc1cc(Nc2cc(N3CCN(C)CC3)nc(Sc3ccc(NC(=O)C4CC4)cc3)n2)n[nH]1 | 13.8 µM
34 | Clc1ccc(-c2nc(NC3CCCC3)c3ccccc3n2)cc1 | 17.6 µM
35 | COc1cccc(CNC2=NCCNC23CCN(S(=O)(=O)c2ccc(Cl)s2)CC3)c1 | 11.6 µM
36 | O=C(c1cccc(F)c1)N1CCCCN2[C@H](C1)[C@@H](c1ccc(C#CC3(O)CCCC3)cc1)[C@@H]2CO | 11 µM and 29.4 µM
37 | Clc1ccccc1-c1nc(NCCCN2CCN(c3ccccc3)CC2)c2ccccc2n1 | > 39 µM (inactive)
38 | CC(C)CC#Cc1ccc([C@@H]2[C@@H](CO)N3C(=O)CN(C(=O)c4cccc(F)c4)C[C@@H]23)cc1 | 15 µM and 9.46 µM
39 | CCC(=O)N1CCC2(CC1)Nc1ccc(Cl)cc1-n1cccc12 | 31 µM
40 | O=S(=O)(c1ccccc1)N1CCc2c([nH]c3ccccc23)C1c1ccc(F)c(F)c1 (configuration not stated) | 13.9 µM
41 | Cc1cccc(CNC2=NCCNC23CCN(S(=O)(=O)c2ccc4c(c2)CCCC4)CC3)c1 | 5.08 µM
42 | COc1ccccc1-c1noc(-c2nnn(Cc3nc(-c4ccccc4OC)oc3C)c2C)n1 | > 39 µM (inactive)
43 | CCC(=O)N1CC[C@@H]2[C@H]1c1cc(C#Cc3ccccc3F)ccc1N[C@@H]2CO | 29.2 µM
44 | C1=CC[C@H]2CN(c3ncnc4[nH]ccc34)C[C@H]2C1 | 13.1 µM
45 | COc1ccc(-c2nc(CSc3nc4c(c(=O)[nH]3)CN(Cc3ccc(F)cc3)CC4)c(C)o2)cc1 | 23.2 µM
46 | CN(C)C(=O)COCc1cncc2c1CCN(c1ccccn1)C2 | 6.26 µM
47 | Cc1cc2nc(CN3CCCC(CCc4ccc(F)cc4F)C3)cc(=O)n2[nH]1 (configuration not stated) | > 20 µM (inactive)
